In patent US12358897B2, “Compounds and method of treating COVID-19” (Pfizer Inc., priority 2020, dated 2025):

Each compound was assayed against T1, full-length SARS-CoV-2 3CL protease (Severe acute respiratory syndrome coronavirus 2, UniProt P0DTD1) (assay: SARS-CoV-2 Coronavirus 3C Protease FRET Assay (Dabcyl-KTSAVLQ-SGFRKME-Edans substrate)). Conditions: 15 nM enzyme, 25 μM peptide substrate, 60 minutes at 23° C.; Morrison equation fit; read-out: Geometric Mean Ki.
T1 construct: measures the activity of full-length SARS-CoV-2 3CL protease
Assay type: biochemical

SMILES	Ki
COc1cccc2[nH]c(C(=O)N[C@@H](CC(C)C)C(=O)N[C@@H](C[C@@H]3CCNC3=O)C(=O)COC(=O)c3c(C)nc(C4CCOCC4)nc3C)cc12 [Example 75, (3S)-3-({N-[(4-methoxy-1H-indol-2-yl)carbonyl]-L-leucyl}amino)-2-oxo-4-[(3S)-2-oxopyrrolidin-3-yl]butyl 4,6-di methyl-2-(tetrahydro-2H-pyran-4-yl)pyrimidine-5-carboxylate]	5.5 nM
COc1cccc2[nH]c(C(=O)N[C@@H](CC(C)C)C(=O)N[C@@H](C[C@@H]3CCNC3=O)C(=O)COC(=O)c3ccccn3)cc12 [Example 35, (3S)-3-({N-[(4-methoxy-1H-indol-2-yl)carbonyl]-L-leucyl}amino)-2-oxo-4-[(3S)-2-oxopyrrolidin-3-yl]butyl pyridine-2-carboxylate]	4.43 nM
COc1cccc2[nH]c(C(=O)N[C@@H](CC(C)C)C(=O)N[C@@H](C[C@@H]3CCNC3=O)C(=O)COC(=O)c3cn(C)nc3C)cc12 [Example 39, (3S)-3-({N-[(4-methoxy-1H-indol-2-yl)carbonyl]-L-leucyl}amino)-2-oxo-4-[(3S)-2-oxopyrrolidin-3-yl]butyl 1,3-dimethyl-1H-pyrazole-4-carboxylate]	91.9 nM
COc1cccc2[nH]c(C(=O)N[C@@H](CC(C)C)C(=O)N[C@@H](C[C@@H]3CCNC3=O)C(=O)COC(=O)C3(C)CCCCC3)cc12 [Example 13, (3S)-3-({N-[(4-methoxy-1H-indol-2-yl)carbonyl]-L-leucyl}amino)-2-oxo-4-[(3S)-2-oxopyrrolidin-3-yl]butyl 1-methylcyclohexanecarboxylate]	139 nM
CC[C@H](C)C(=O)OCC(=O)[C@H](C[C@@H]1CCNC1=O)NC(=O)[C@H](CC(C)C)NC(=O)c1cc2c(OC)cccc2[nH]1 [Example 18, (3S)-3-({N-[(4-methoxy-1H-indol-2-yl)carbonyl]-L-leucyl}amino)-2-oxo-4-[(3S)-2-oxopyrrolidin-3-yl]butyl (2S)-2-methylbutanoate]	65.7 nM
CCC(=O)OCC(=O)[C@H](C[C@@H]1CCNC1=O)NC(=O)[C@H](CC(C)C)NC(=O)c1cc2c(OC)cccc2[nH]1 [Example 9, (3S)-3-({N-[(4-methoxy-1H-indol-2-yl)carbonyl]-L-leucyl}amino)-2-oxo-4-[(3S)-2-oxopyrrolidin-3-yl]butyl propanoate]	33.6 nM
COc1cccc2[nH]c(C(=O)N[C@@H](CC(C)C)C(=O)N[C@@H](C[C@@H]3CCNC3=O)C(=O)COC(=O)c3c(C)nn(C)c3C)cc12 [Example 48, (3S)-3-({N-[(4-methoxy-1H-indol-2-yl)carbonyl]-L-leucyl}amino)-2-oxo-4-[(3S)-2-oxopyrrolidin-3-yl]butyl 1,3,5-trimethyl-1H-pyrazole-4-carboxylate]	255 nM
COc1cccc2[nH]c(C(=O)N[C@@H](CC(C)C)C(=O)N[C@@H](C[C@@H]3CCNC3=O)C(=O)COC(=O)CN(C)C)cc12 [Example 4, (3S)-3-({N-[(4-methoxy-1H-indol-2-yl)carbonyl]-L-leucyl}amino)-2-oxo-4-[(3S)-2-oxopyrrolidin-3-yl]butyl N,N-dimethylglycinate]	2.98 nM
COc1cccc2[nH]c(C(=O)N[C@@H](CC(C)C)C(=O)N[C@@H](C[C@@H]3CCNC3=O)C(=O)COC(=O)c3c(C)cccc3F)cc12 [Example 72, (3S)-3-({N-[(4-methoxy-1H-indol-2-yl)carbonyl]-L-leucyl}amino)-2-oxo-4-[(3S)-2-oxopyrrolidin-3-yl]butyl 2-fluoro-6-methylbenzoate]	8.91 nM
COc1cccc2[nH]c(C(=O)N[C@@H](CC(C)C)C(=O)N[C@@H](C[C@@H]3CCNC3=O)C(=O)COC(=O)c3c(C)ccnc3CN(C)C)cc12 [Example 59, (3S)-3-({N-[(4-methoxy-1H-indol-2-yl)carbonyl]-L-leucyl}amino)-2-oxo-4-[(3S)-2-oxopyrrolidin-3-yl]butyl 2-[(dimethylamino)methyl]-4-methylpyridine-3-carboxylate]	13.6 nM
COc1cccc2[nH]c(C(=O)N[C@@H](CC(C)C)C(=O)N[C@@H](C[C@@H]3CCNC3=O)C(=O)COC(=O)c3c(C)cncc3C)cc12 [Example 68, (3S)-3-({N-[(4-methoxy-1H-indol-2-yl)carbonyl]-L-leucyl}amino)-2-oxo-4-[(3S)-2-oxopyrrolidin-3-yl]butyl 3,5-di methylpyridine-4-carboxylate]	7.56 nM
COc1cccc2[nH]c(C(=O)N[C@@H](CC(C)C)C(=O)N[C@@H](C[C@@H]3CCNC3=O)C(=O)COC(=O)c3ccccc3C)cc12 [Example 11, (3S)-3-({N-[(4-methoxy-1H-indol-2-yl)carbonyl]-L-leucyl}amino)-2-oxo-4-[(3S)-2-oxopyrrolidin-3-yl]butyl 2-methylbenzoate]	71.4 nM
COc1cccc(C)c1C(=O)OCC(=O)[C@H](C[C@@H]1CCNC1=O)NC(=O)[C@H](CC(C)C)NC(=O)c1cc2c(OC)cccc2[nH]1 [Example 66, (3S)-3-({N-[(4-methoxy-1H-indol-2-yl)carbonyl]-L-leucyl}amino)-2-oxo-4-[(3S)-2-oxopyrrolidin-3-yl]butyl 2-methoxy-6-methylbenzoate]	39.6 nM
COc1cccc2[nH]c(C(=O)N[C@@H](CC(C)C)C(=O)N[C@@H](C[C@@H]3CCNC3=O)C(=O)COC(=O)[C@H]3CCCN3C)cc12 [Example 27, (3S)-3-({N-[(4-methoxy-1H-indol-2-yl)carbonyl]-L-leucyl}amino)-2-oxo-4-[(3S)-2-oxopyrrolidin-3-yl]butyl 1-methyl-D-prolinate]	0.0321 nM
COc1cccc2[nH]c(C(=O)N[C@@H](CC(C)C)C(=O)N[C@@H](C[C@@H]3CCNC3=O)C(=O)COC(=O)C3(C)CCN(C)CC3)cc12 [Example 17, (3S)-3-({N-[(4-methoxy-1H-indol-2-yl)carbonyl]-L-leucyl}amino)-2-oxo-4-[(3S)-2-oxopyrrolidin-3-yl]butyl 1,4-dimethylpiperidine-4-carboxylate]	17.5 nM
COc1cccc2[nH]c(C(=O)N[C@@H](CC(C)C)C(=O)N[C@@H](C[C@@H]3CCNC3=O)C(=O)COC(=O)C3(C)CC3)cc12 [Example 21, (3S)-3-({N-[(4-methoxy-1H-indol-2-yl)carbonyl]-L-leucyl}amino)-2-oxo-4-[(3S)-2-oxopyrrolidin-3-yl]butyl 1-methylcyclopropanecarboxylate]	104 nM
COc1cccc2[nH]c(C(=O)N[C@@H](CC(C)C)C(=O)N[C@@H](C[C@@H]3CCNC3=O)C(=O)COC(=O)c3ncn(C)c3C)cc12 [Example 40, (3S)-3-({N-[(4-methoxy-1H-indol-2-yl)carbonyl]-L-leucyl}amino)-2-oxo-4-[(3S)-2-oxopyrrolidin-3-yl]butyl 1,5-dimethyl-1H-imidazole-4-carboxylate]	306 nM
COc1cccc2[nH]c(C(=O)N[C@@H](CC(C)C)C(=O)N[C@@H](C[C@@H]3CCNC3=O)C(=O)COC(=O)c3ccncc3)cc12 [Example 34, (3S)-3-({N-[(4-methoxy-1H-indol-2-yl)carbonyl]-L-leucyl}amino)-2-oxo-4-[(3S)-2-oxopyrrolidin-3-yl]butyl pyridine-4-carboxylate]	0.598 nM
COc1cccc2[nH]c(C(=O)N[C@@H](CC(C)C)C(=O)N[C@@H](C[C@@H]3CCNC3=O)C(=O)COC(=O)c3ccn(C)n3)cc12 [Example 43, (3S)-3-({N-[(4-methoxy-1H-indol-2-yl)carbonyl]-L-leucyl}amino)-2-oxo-4-[(3S)-2-oxopyrrolidin-3-yl]butyl 1-methyl-1H-pyrazole-3-carboxylate]	118 nM
COc1cccc2[nH]c(C(=O)N[C@@H](CC(C)C)C(=O)N[C@@H](C[C@@H]3CCNC3=O)C(=O)COC(=O)c3cccnc3)cc12 [Example 29, (3S)-3-({N-[(4-methoxy-1H-indol-2-yl)carbonyl]-L-leucyl}amino)-2-oxo-4-[(3S)-2-oxopyrrolidin-3-yl]butyl pyridine-3-carboxylate]	9.57 nM
CCOc1nccc(C)c1C(=O)OCC(=O)[C@H](C[C@@H]1CCNC1=O)NC(=O)[C@H](CC(C)C)NC(=O)c1cc2c(OC)cccc2[nH]1 [Example 64, (3S)-3-({N-[(4-methoxy-1H-indol-2-yl)carbonyl]-L-leucyl}amino)-2-oxo-4-[(3S)-2-oxopyrrolidin-3-yl]butyl 2-ethoxy-4-methylpyridine-3-carboxylate]	34.9 nM
COc1cccc2[nH]c(C(=O)N[C@@H](CC(C)C)C(=O)N[C@@H](C[C@@H]3CCNC3=O)C(=O)COC(=O)c3cnccc3C)cc12 [Example 23, (3S)-3-({N-[(4-methoxy-1H-indol-2-yl)carbonyl]-L-leucyl}amino)-2-oxo-4-[(3S)-2-oxopyrrolidin-3-yl]butyl 4-methylpyridine-3-carboxylate]	21.2 nM
COc1cccc2[nH]c(C(=O)N[C@@H](CC(C)C)C(=O)N[C@@H](C[C@@H]3CCNC3=O)C(=O)COC(=O)[C@@H]3CCCN3C)cc12 [Example 28, (3S)-3-({N-[(4-methoxy-1H-indol-2-yl)carbonyl]-L-leucyl}amino)-2-oxo-4-[(3S)-2-oxopyrrolidin-3-yl]butyl 1-methyl-L-prolinate]	2.47 nM
COc1cccc2[nH]c(C(=O)N[C@@H](CC(C)C)C(=O)N[C@@H](C[C@@H]3CCNC3=O)C(=O)COC(=O)c3ccnn3C)cc12 [Example 42, (3S)-3-({N-[(4-methoxy-1H-indol-2-yl)carbonyl]-L-leucyl}amino)-2-oxo-4-[(3S)-2-oxopyrrolidin-3-yl]butyl 1-methyl-1H-pyrazole-5-carboxylate]	5.25 nM
COc1cccc2[nH]c(C(=O)N[C@@H](CC(C)C)C(=O)N[C@@H](C[C@@H]3CCNC3=O)C(=O)COC(=O)c3cccnc3C)cc12 [Example 24, (3S)-3-({N-[(4-methoxy-1H-indol-2-yl)carbonyl]-L-leucyl}amino)-2-oxo-4-[(3S)-2-oxopyrrolidin-3-yl]butyl 2-methylpyridine-3-carboxylate]	14.2 nM
COc1cc(C)c(C(=O)OCC(=O)[C@H](C[C@@H]2CCNC2=O)NC(=O)[C@H](CC(C)C)NC(=O)c2cc3c(OC)cccc3[nH]2)c(C)c1 [Example 73, (3S)-3-({N-[(4-methoxy-1H-indol-2-yl)carbonyl]-L-leucyl}amino)-2-oxo-4-[(3S)-2-oxopyrrolidin-3-yl]butyl 4-methoxy-2,6-dimethyl benzoate]	117 nM
